# Where two headings read alike, the source gives them in different places.
# Key:
# [1] = system: Panc 04.03 xenograft tumors; assay: In vivo anticancer activity, Panc 04.03 xenograft; parameters: species or system BALB/c nude mice; details: 3 and 10 mg/kg intraperitoneal every 4 days, five times, 20 days, vs vehicle
# Experimental: Based on previously reported protocols for investigating inhibition in vivo ([Zhou et al., 2022]), we injected Panc 04.03 cells (200 μl, 1 × 10^7 cells) in the subdermal space on the right flank of 6-week-old BALB/c nude mice (Changzhou Cavens Laboratory Animal Co., Ltd, China). All experimental protocols were approved by the Animal Ethics Committee of China Pharmaceutical University (Ethic approval number: 2022–11–001). Once tumors grew to 80–100 mm^3, mice were randomly divided into three groups (5 mice per group) and intraperitoneally administered with vehicle, hit compound 3 (3 mg/kg) and hit compound 3 (10 mg/kg) every 4 days for a total of five times. Tumor volume and body weight were measured every 4 days. Tumor volume was calculated using the formula (c × c × d)/2 (c, the smallest diameter; d, the largest diameter).
# Panc 04.03 cells = assay: MTT cell proliferation assay; format: cell-based; details: Homo sapiens, 72 h treatment
# Experimental: According to the previously reported method ([Yang et al., 2019]), the human pancreatic cancer cell line (Panc 04.03) was seeded at the density of 2.4 × 10^4 on 96-well plates. After incubation at 37°C with 5% CO2 for 24 h, the cells were incubated with different concentrations of inhibitors under the same conditions. After 72 h, MTT (0.5 mg/ml, 100 μl) was added after the supernatant was discarded. Then keep the 96-well plate at 37°C for 4 h. After that, abandon the medium and inject 200 μl of dimethyl sulfoxide (DMSO) into each well. The spectrophotometric absorbance of the sample at 570 nm was measured using a Synergy 4 Microplate Reader (BioTek Instruments Inc., United States). All of the compounds were tested three times in each of the cells.
# KRAS^G12D [2] = biological target: T1, KRAS^G12D (Homo sapiens, UniProt P01116, G12D); assay: Microscale thermophoresis (MST) binding assay; details: room temperature
# T1 construct: purchased Abcam
# Experimental: MST is an effective method to evaluate biomolecular interactions and has been used to study the interactions between binding partners of different molecular sizes ([Wienken et al., 2010]; [Seidel et al., 2013]). According to the previously reported method to measure the interaction between small molecule inhibitors and KRAS^G12D protein, the MST assay was performed using Monolith NT.115 instrument (NanoTemp Technologies, GmbH, Munich, Germany) ([Wienken et al., 2010]). The red fluorescent dye was used for KRAS^G12D fluorescent labeling. Small molecule inhibitors were diluted 1:1 and titrated. The binding buffer (50 mM Tris, 230 mM NaCl) was added to the dilution curve of the small molecule inhibitors and the labeled protein. The final sample was centrifuged at 13,000 rpm for 10 min, and then filled into the capillary tube for MST analysis with 20% LED power and 50% MST power at room temperature. The equilibrium dissociation constant (K d) was calculated using Nano Temper Analysis software.
# KRAS^G12D [3] = biological target: T1, KRAS^G12D; details: known inhibitor, Figure 1, cited from earlier work
# T1 sequence (P01116 1-188 isoform P01116-2 G12D): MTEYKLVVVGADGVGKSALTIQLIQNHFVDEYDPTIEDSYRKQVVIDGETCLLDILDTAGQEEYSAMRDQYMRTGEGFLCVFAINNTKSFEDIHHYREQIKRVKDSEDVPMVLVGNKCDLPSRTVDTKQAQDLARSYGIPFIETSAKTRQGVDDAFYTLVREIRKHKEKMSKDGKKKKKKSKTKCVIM
Compound,IC50 (Panc 04.03 cells) [nM],Kd (KRAS^G12D [2]) [nM],other results
Oc1cc(-c2ncc3c(N4CC5CCC(C4)N5)nc(OCC4CCCN4CCC4CCCC4)nc3c2F)c2c(Cl)cccc2c1 (stereo not shown) [Hit compound 3],43.8,0.13 ± 0.05,Tumor growth (tumor volume) of Panc 04.03 xenograft [1]: significantly inhibited
C#Cc1c(F)ccc2cc(O)cc(-c3ncc4c(N5CC6CCC(C5)N6)nc(OCC(C)NC(F)(F)F)nc4c3F)c12 (stereo not shown) [Hit compound 1],212,0.98 ± 0.09,
Cn1cnc(Cn2ccc3ccc(CNCc4[nH]c5ccccc5c4[C@H]4NC(=O)c5ccc(O)cc54)cc32)c1 [BI-2852],,,"IC50 (KRAS^G12D [3]; ref Kessler et al., 2019): 6700 nM"
C#Cc1c(F)ccc2cc(O)cc(-c3ncc4c(N5CC6CCC(C5)N6)nc(OCC5CCCN5CC5CC5)nc4c3F)c12 (stereo not shown) [Hit compound 2],90,0.46 ± 0.08,
NC1(C(=O)NCCCn2cc(-c3ccc(OC(F)(F)F)cc3)c3cc(CN4CCN(Cc5c(Cl)cccc5Cl)CC4)ccc32)CCNCC1 [compound 3144],,,"IC50 (KRAS^G12D [3]; ref Welsch et al., 2017): 3800 nM"
Oc1cc(-c2ncc3c(N4CC5CCC(C4)N5)nc(OCCNC4CCCCC4)nc3c2F)c2c(Cl)cccc2c1 [Hit compound 4],146,0.76 ± 0.11,
"Cc1cccc2cccc(N3CCc4c(nc(OCC5CCCN5C)nc4N4CC5CCC(C4)N5)C3)c12 (stereo not shown) [TH-Z835, reference compound]",> 300,,"IC50 (KRAS^G12D [3]; ref Mao et al., 2022): 1600 nM"
